Laboratory results taken from patent US7781460B2, “Substituted indazoles as inhibitors of phosphodiesterase type-IV” (Ranbaxy Laboratories Limited, priority 2005, dated 2010).

Columns and labels:
[1] = system: TNF-α release from LPS-stimulated human peripheral blood mononuclear cells; test: Cell based assay for TNF-α release (LPS stimulation of human PBMNC's); conditions: PBMC; human PBMN cells, LPS 1 μg/ml, incubated overnight, ELISA; read-out: IC50, inhibition of TNF-α release
Description: Cell based Assay for TNF-α Release
Method of Isolation of Human Peripheral Blood Mononuclear Cells:
Human whole blood was collected in vacutainer tubes containing heparin or EDTA as an anti coagulant. The blood was diluted (1:1) in sterile phosphate buffered saline and 10 ml. was carefully layered over 5 ml Ficoll Hypaque gradient (density 1.077 g/ml) in a 15 ml conical centrifuge tube. The sample was centrifuged at 3000 rpm for 25 minutes in a swing-out rotor at room temperature. After centrifugation, interface of cells were collected, diluted at least 1:5 with PBS and washed three times by centrifugation at 2500 rpm for 10 minutes at room temperature. The cells were resuspended in serum free RPMI 1640 medium at a concentration of 2 million cells/ml. Alternatively whole blood was used.
LPS Stimulation of Human PBMNC's:
PBMN cells (0.1 ml; 2 million/ml) were co-incubated with 20 μl of compound (final DMSO concentration of 0.2%) for 10 min in a flat bottom 96 well microtiter plate. Compounds were dissolved in DMSO initially and diluted in medium for a final concentration of 0.2% DMSO. LPS (1 μg/ml, final concentration) was then added at a volume of 10 μl per well. After 30 min, 20 μl of fetal calf serum (final concentration of 10%) was added to each well. Cultures were incubated overnight at 37° C. in an atmosphere of 5% CO2 and 95% air. Supernatant were then removed and tested by ELISA for TNF-α release using a commercial kit (e.g. BD Biosciences). For whole blood, the plasma samples were diluted 1:20 for ELISA. The level of TNF-α in treated wells was compared with the vehicle treated controls and inhibitory potency of compound was expressed as IC50 values calculated by using Graph pad prism.

| SMILES | IC50 [1] [µM] | melting point [°C] |
| --- | --- | --- |
| Cc1nn(C2CCCC2)c2cc(C3=NOC(C)(C#N)C3)ccc12 (stereo not shown) [Compound 2, 3-(1-Cyclopentyl-3-methyl-1H-indazol-6-yl)-5-methyl-4,5-dihydroisoxazole-5-carbonitrile] | 4.2 to 10 |  |
| CCc1nn(C2CCCC2)c2cc(C3=NOC(C)(C#N)C3)ccc12 (stereo not shown) [Compound 3, 3-(1-Cyclopentyl-3-ethyl-1H-indazol-6-yl)-5-methyl-4,5-dihydroisoxazole-5-carbonitrile] | 4.2 to 10 |  |
| COc1ccc(C2CNC(=O)C2)cc1OC1CCCC1 (stereo not shown) [rolipram, reference compound] | 1.2 |  |

The next lines start with the values.

| IC50 [1] [µM] | melting point [°C] | SMILES |
| --- | --- | --- |
|  | 154 to 155 | CCc1nn(C2CCCC2)c2cc(C3=NOC(C)(c4noc(-c5ccc(Cl)cc5)n4)C3)ccc12 (stereo not shown) [Compound 11, 6-{5-[5-(4-Chlorophenyl)-1,2,4-oxadiazol-3-yl]-5-methyl-4,5-dihydroisoxazol-3-yl}-1-cyclopentyl-3-ethyl-1H-indazole] |
| 4.2 to 10 |  | Cc1nn(C2CCCC2)c2cc(C3=NOC(C)(c4nc(-c5cc(F)ccc5F)no4)C3)ccc12 (stereo not shown) [Compound 23, 1-Cyclopentyl-6-{5-[3-(2,5-difluorophenyl)-1,2,4-oxadiazol-5-yl]-5-methyl-4,5-dihydroisoxazol-3-yl}-3-methyl-1H-indazole] |
| 4.2 to 10 |  | CCc1nn(C2CCCC2)c2cc(C3=NOC(C)(c4nc(-c5cc(Cl)ccc5Cl)no4)C3)ccc12 (stereo not shown) [Compound 31, 1-Cyclopentyl-6-{5-[3-(2,5-dichlorophenyl)-1,2,4-oxadiazol-5-yl]-5-methyl-4,5-dihydroisoxazol-3-yl}-3-ethyl-1H-indazole] |
| 4.2 to 10 |  | CCc1nn(C2CCCC2)c2cc(C3=NOC(C)(c4nc(-c5cc(F)ccc5F)no4)C3)ccc12 (stereo not shown) [Compound 32, 1-Cyclopentyl-6-{5-[3-(2,5-difluorophenyl)-1,2,4-oxadiazol-5-yl]-5-methyl-4,5-dihydroisoxazol-3-yl}-3-ethyl-1H-indazole] |
